Source: US20240317780A1, “RADIOPHARMACEUTICAL SOMATOSTATIN RECEPTOR LIGANDS AND PRECURSORS THEREOF” (Technische Universität München, priority 2021, published 2024)
Read-outs that look alike come from different tables or passages of the source. Where a SMILES comes first, the peptide text is derived from it. Bridges are numbered along the chain shown (N, C = ends). [ ]: non-standard residue; d: D form. The star is where a group is joined. ξ: configuration not given here. X1 = CC(C)(C)[Si](F)(c1ccc(C[N+](C)(C)CC(=O)*)cc1)C(C)(C)C; DO3AM = NC(=O)CN1CCN(CC(N)=O)CCN(CC(=O)*)CCN(CC(N)=O)CC1; ξW = NC(Cc1c[nH]c2ccccc12)C(=O)O; ξF = NC(Cc1ccccc1)C(=O)O; ξD = NC(CC(=O)O)C(=O)O; ξDap = NCC(N)C(=O)O; ξC = NC(CS)C(=O)O

Legend:
SST2 = target: T1, SST2 (Homo sapiens, UniProt P30874); assay: Determination of IC50: competitive binding against [125I]TOC on SST2-transfected CHO cells; details: [125I]TOC reference radioligand, 60 min room temperature
T1 construct: expressed in transfected cells; host or cells: CHO (Chinese hamster ovary) cells

[1] = Octanol-water distribution coefficient (logD pH 7.4) of the labeled tracer; assay type: physicochemical; details: n-octanol/PBS pH 7.4, room temperature
Description: Approximately 1 MBq of the labeled tracer was dissolved in 1 mL of a 1:1 mixture (by volumes) of phosphate buffered saline (PBS, pH 7.4) and n-octanol in an Eppendorf tube. After vigorous mixing of the suspension for 3 minutes at room temperature, the vial was centrifuged at 15000 g for 5 minutes (Biofuge 15, Heraus Sepatech, Osterode, Germany) and 100 μL aliquots of both layers were measured in a gamma counter. The experiment was repeated at least six times.

[2] = Biodistribution of 18F-labeled SST2 ligands in AR42J tumor-bearing mice; assay type: in vivo; details: female, CD1 nu/nu, mouse, iv, total radioactivity, 1 h post injection
Description: All animal experiments were conducted in accordance with general animal welfare regulations in Germany and the institutional guidelines for the care and use of animals. To establish tumor xenografts, AR42J cells (5×10^6 cells/100 μL) were suspended in Dulbecco modified Eagle medium/Nutrition Mixture F-12 with Glutamax-1 (1:1) and inoculated subcutaneously onto the right shoulder of 8 weeks old, female CD1 nu/nu mice (Charles River, Sulzfeld, Germany). Mice were used for experiments when tumors had grown to a diameter of 5-9 mm (7-15 days after inoculation).
Approximately 0.5-2.0 MBq (0.05-0.25 nmol) of the ^18F-labeled SST2-ligands were injected into the tail vein of AR42J tumor-bearing female CD1 nu/nu mice and sacrificed after 1 h post injection (n=3-5). Selected organs were removed, weighted and measured in a γ-counter.
The Tables 4, 5, and 6 summarize the results of the in vivo mouse experiments. For all biodistribution studies, female CD1 nu/nu mice with AR42J tumor xenografts, were used and sacrificed 1 h post injection.

[3] = AR42J tumor, AR42J tumor, tail vein, read-out: Tumor % ID/g ± SD
[4] = adrenal glands, tail vein, read-out: Adrenal glands % ID/g ± SD
[5] = blood, tail vein, read-out: Blood % ID/g ± SD
[6] = bone, tail vein, read-out: Bone % ID/g ± SD
[7] = heart, tail vein, read-out: Heart % ID/g ± SD
[8] = intestine, tail vein, read-out: Intestine % ID/g ± SD
[9] = kidneys, tail vein, read-out: Kidneys % ID/g ± SD
[10] = liver, tail vein, read-out: Liver % ID/g ± SD
[11] = lung, tail vein, read-out: Lung % ID/g ± SD
[12] = muscle, tail vein, read-out: Muscle % ID/g ± SD
[13] = pancreas, tail vein, read-out: Pancreas % ID/g ± SD
[14] = spleen, tail vein, read-out: Spleen % ID/g ± SD
[15] = stomach, tail vein, read-out: Stomach % ID/g ± SD

T1 sequence (P30874 whole entry, species assumed): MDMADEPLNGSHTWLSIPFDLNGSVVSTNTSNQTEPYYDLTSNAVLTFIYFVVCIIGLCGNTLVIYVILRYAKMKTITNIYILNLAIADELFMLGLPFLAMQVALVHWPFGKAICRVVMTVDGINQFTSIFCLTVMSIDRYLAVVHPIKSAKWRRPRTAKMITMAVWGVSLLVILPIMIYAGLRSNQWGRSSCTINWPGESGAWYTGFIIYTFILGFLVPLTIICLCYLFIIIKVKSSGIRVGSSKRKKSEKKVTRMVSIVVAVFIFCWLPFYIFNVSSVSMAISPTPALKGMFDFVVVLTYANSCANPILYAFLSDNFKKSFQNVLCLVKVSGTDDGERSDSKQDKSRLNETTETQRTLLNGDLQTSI

## C[C@@H](O)[C@@H]1NC(=O)[C@H](CCCCN)NC(=O)C(Cc2ccc(NC(N)=O)cc2)NC(=O)[C@H](Cc2ccc(NC(=O)C3CC(=O)NC(=O)N3)cc2)NC(=O)[C@H](NC(=O)[C@H](Cc2ccc(Cl)cc2)NC(=O)CNC(=O)CNC(=O)CNC(=O)C(CC(=O)O)NC(=O)[C@@H](CC(N)=O)NC(=O)C(CNC(=O)CN2CCN(CC(=O)O)CCN(CC(=O)O)CCN(CC(=O)O)CC2)NC(=O)C[N+](C)(C)Cc2ccc([Si](F)(C(C)(C)C)C(C)(C)C)cc2)CSSCC(C(=O)NC(Cc2ccc(O)cc2)C(N)=O)NC1=O (some centres unmarked) (natGa complex, metal not drawn) [[Ga]59]
SST2
  IC50: 23.7 ± 1.5 nM
[1]
  LogDpH=7.4: −2.14 ± 0.03

## C[C@@H](O)[C@H](NC(=O)C1CSSCC(NC(=O)C(Cc2ccccc2)NC(=O)CNC(=O)CNC(=O)[C@@H](CC(=O)O)NC(=O)C(CC(=O)O)NC(=O)[C@@H](CNC(=O)c2ccc([Si](F)(C(C)(C)C)C(C)(C)C)cc2)NC(=O)CN2CCN(CC(=O)O)CCN(CC(=O)O)CCN(CC(=O)O)CC2)C(=O)N[C@@H](Cc2ccc(O)cc2)C(=O)NC(Cc2c[nH]c3ccccc23)C(=O)N[C@@H](CCCCN)C(=O)N[C@@H]([C@@H](C)O)C(=O)N1)C(=O)O (some centres unmarked) (natGa complex, metal not drawn) [[Ga]8]
SST2
  IC50: 58.5 ± 10.8 nM
[1]
  LogDpH=7.4: −2.02 ± 0.04

## C[C@@H](O)[C@H](NC(=O)C1CSSCC(NC(=O)C(Cc2ccccc2)NC(=O)CNC(=O)CNC(=O)CNC(=O)C(CC(=O)O)NC(=O)[C@@H](CC(=O)O)NC(=O)C(CNC(=O)CN2CCN(CC(=O)O)CCN(CC(=O)O)CCN(CC(=O)O)CC2)NC(=O)CNC(=O)C[N+](C)(C)Cc2ccc([Si](F)(C(C)(C)C)C(C)(C)C)cc2)C(=O)N[C@@H](Cc2ccc(O)cc2)C(=O)NC(Cc2c[nH]c3ccccc23)C(=O)N[C@@H](CCCCN)C(=O)N[C@@H]([C@@H](C)O)C(=O)N1)C(=O)O (some centres unmarked) (natGa complex, metal not drawn) [[Ga]60]
SST2
  IC50: 4.15 ± 0.79 nM
[1]
  LogDpH=7.4: −2.24 ± 0.05

## C[C@@H](O)[C@H](NC(=O)C1CSSCC(NC(=O)C(Cc2ccccc2)NC(=O)CNC(=O)CNC(=O)CNC(=O)C(CC(=O)O)NC(=O)[C@@H](CC(=O)O)NC(=O)C(CNC(=O)CN2CCN(CC(N)=O)CCN(CC(N)=O)CCN(CC(N)=O)CC2)NC(=O)C[N+](C)(C)Cc2ccc([Si](F)(C(C)(C)C)C(C)(C)C)cc2)C(=O)N[C@@H](Cc2ccc(O)cc2)C(=O)NC(Cc2c[nH]c3ccccc23)C(=O)N[C@@H](CCCCN)C(=O)N[C@@H]([C@@H](C)O)C(=O)N1)C(=O)O (some centres unmarked) [[Pb]54] (X1-[ξDap](DO3AM)[dD][ξD]GGG[ξF][ξC]Y[ξW]KT[ξC]T-OH; disulfide 8-13)
SST2
  IC50: 4.24 ± 0.68 nM
[1]
  LogDpH=7.4: −1.86 ± 0.04

## C[C@@H](O)[C@H](NC(=O)C1CSSCC(NC(=O)C(Cc2ccccc2)NC(=O)CNC(=O)CNC(=O)[C@@H](CC(=O)O)NC(=O)C(CC(=O)O)NC(=O)[C@@H](CNC(=O)c2ccc([Si](F)(C(C)(C)C)C(C)(C)C)cc2)NC(=O)CCC(C(=O)O)N2CCN(CC(=O)O)CCN(CC(=O)O)CCN(CC(=O)O)CC2)C(=O)N[C@@H](Cc2ccc(O)cc2)C(=O)NC(Cc2c[nH]c3ccccc23)C(=O)N[C@@H](CCCCN)C(=O)N[C@@H]([C@@H](C)O)C(=O)N1)C(=O)O (some centres unmarked) (natGa complex, metal not drawn) [[Ga]6]
SST2
  IC50: 149 ± 20.3 nM
[1]
  LogDpH=7.4: −2.15 ± 0.09

## C[C@@H](O)[C@H](NC(=O)C1CSSCC(NC(=O)C(Cc2ccccc2)NC(=O)CNC(=O)CNC(=O)CNC(=O)C(CC(=O)O)NC(=O)[C@@H](CC(=O)O)NC(=O)C(CCCCN)NC(=O)[C@@H](CNC(=O)CN2CCN(CC(=O)O)CCN(CC(=O)O)CCN(CC(=O)O)CC2)NC(=O)C[N+](C)(C)Cc2ccc([Si](F)(C(C)(C)C)C(C)(C)C)cc2)C(=O)N[C@@H](Cc2ccc(O)cc2)C(=O)NC(Cc2c[nH]c3ccccc23)C(=O)N[C@@H](CCCCN)C(=O)N[C@@H]([C@@H](C)O)C(=O)N1)C(=O)O (some centres unmarked) (natGa complex, metal not drawn) [[Ga]57]
SST2
  IC50: 4.74 ± 0.22 nM
[1]
  LogDpH=7.4: −2.25 ± 0.14

## C[C@@H](O)[C@H](NC(=O)C1CSSCC(NC(=O)C(Cc2ccccc2)NC(=O)CNC(=O)CNC(=O)[C@@H](CC(=O)O)NC(=O)C(CC(=O)O)NC(=O)[C@@H](CNC(=O)CN2CCN(CC(=O)O)CCN(CC(=O)O)CCN(CC(=O)O)CC2)NC(=O)C[N+](C)(C)Cc2ccc([Si](F)(C(C)(C)C)C(C)(C)C)cc2)C(=O)N[C@@H](Cc2ccc(O)cc2)C(=O)NC(Cc2c[nH]c3ccccc23)C(=O)N[C@@H](CCCCN)C(=O)N[C@@H]([C@@H](C)O)C(=O)N1)C(=O)O (some centres unmarked) (natGa complex, metal not drawn) [[Ga]24]
SST2
  IC50: 9.48 ± 1.96 nM
[2]; [3]
  tissue uptake at 1 h: 23.9 ± 4.1 %ID/g
[2]; AR42J tumor, AR42J tumor, Blocking study, read-out: Tumor % ID/g ± SD
  tissue uptake at 1 h: 6.1 ± 0.02 %ID/g
[2]; [4]
  tissue uptake at 1 h: 1.52 ± 0.46 %ID/g
[2]; adrenal glands, Blocking study, read-out: Adrenal glands % ID/g ± SD
  tissue uptake at 1 h: 0.54 ± 0.05 %ID/g
[2]; [5]
  tissue uptake at 1 h: 0.66 ± 0.32 %ID/g
[2]; blood, Blocking study, read-out: Blood % ID/g ± SD
  tissue uptake at 1 h: 1.24 ± 0.61 %ID/g
[2]; [6]
  tissue uptake at 1 h: 1.32 ± 0.19 %ID/g
[2]; bone, Blocking study, read-out: Bone % ID/g ± SD
  tissue uptake at 1 h: 0.77 ± 0.07 %ID/g
[2]; [7]
  tissue uptake at 1 h: 0.34 ± 0.09 %ID/g
[2]; heart, Blocking study, read-out: Heart % ID/g ± SD
  tissue uptake at 1 h: 0.53 %ID/g
[2]; [8]
  tissue uptake at 1 h: 1.41 ± 0.19 %ID/g
[2]; intestine, Blocking study, read-out: Intestine % ID/g ± SD
  tissue uptake at 1 h: 0.71 ± 0.04 %ID/g
[2]; [9]
  tissue uptake at 1 h: 13.6 ± 3.58 %ID/g
[2]; kidneys, Blocking study, read-out: Kidneys % ID/g ± SD
  tissue uptake at 1 h: 18.2 ± 2.03 %ID/g
[2]; [10]
  tissue uptake at 1 h: 1.05 ± 0.22 %ID/g
[2]; liver, Blocking study, read-out: Liver % ID/g ± SD
  tissue uptake at 1 h: 1.82 ± 0.22 %ID/g
[2]; [11]
  tissue uptake at 1 h: 2.33 ± 0.1 %ID/g
[2]; lung, Blocking study, read-out: Lung % ID/g ± SD
  tissue uptake at 1 h: 1.36 ± 0.13 %ID/g
[2]; [12]
  tissue uptake at 1 h: 0.09 ± 0.04 %ID/g
[2]; muscle, Blocking study, read-out: Muscle % ID/g ± SD
  tissue uptake at 1 h: 0.21 ± 0.01 %ID/g
[2]; [13]
  tissue uptake at 1 h: 9.28 ± 0.57 %ID/g
[2]; pancreas, Blocking study, read-out: Pancreas % ID/g ± SD
  tissue uptake at 1 h: 1.07 ± 0.02 %ID/g
[2]; [14]
  tissue uptake at 1 h: 0.45 ± 0.05 %ID/g
[2]; spleen, Blocking study, read-out: Spleen % ID/g ± SD
  tissue uptake at 1 h: 0.33 %ID/g
[2]; [15]
  tissue uptake at 1 h: 4.95 ± 0.35 %ID/g
[2]; stomach, Blocking study, read-out: Stomach % ID/g ± SD
  tissue uptake at 1 h: 1.01 ± 0.06 %ID/g

## C[C@@H](O)[C@H](NC(=O)C1CSSCC(NC(=O)C(Cc2ccccc2)NC(=O)CNC(=O)CNC(=O)CNC(=O)C(CC(=O)O)NC(=O)[C@@H](CC(=O)O)NC(=O)C(CCCCN)NC(=O)[C@@H](CNC(=O)C[N+](C)(C)Cc2ccc([Si](F)(C(C)(C)C)C(C)(C)C)cc2)NC(=O)CN2CCN(CC(=O)O)CCN(CC(=O)O)CCN(CC(=O)O)CC2)C(=O)N[C@@H](Cc2ccc(O)cc2)C(=O)NC(Cc2c[nH]c3ccccc23)C(=O)N[C@@H](CCCCN)C(=O)N[C@@H]([C@@H](C)O)C(=O)N1)C(=O)O (some centres unmarked) (natGa complex, metal not drawn) [[Ga]45]
SST2
  IC50: 4.3 ± 0.06 nM
[2]; [3]
  tissue uptake at 1 h: 31.6 ± 4.96 %ID/g
[2]; [4]
  tissue uptake at 1 h: 1.54 ± 0.28 %ID/g
[2]; [5]
  tissue uptake at 1 h: 0.53 ± 0.23 %ID/g
[2]; [6]
  tissue uptake at 1 h: 1.81 ± 0.07 %ID/g
[2]; [7]
  tissue uptake at 1 h: 0.28 ± 0.04 %ID/g
[2]; [8]
  tissue uptake at 1 h: 1.27 ± 0.13 %ID/g
[2]; [9]
  tissue uptake at 1 h: 72.7 ± 7.68 %ID/g
[2]; [10]
  tissue uptake at 1 h: 1.28 ± 0.11 %ID/g
[2]; [11]
  tissue uptake at 1 h: 3.34 ± 0.49 %ID/g
[2]; [12]
  tissue uptake at 1 h: 0.11 ± 0.02 %ID/g
[2]; [13]
  tissue uptake at 1 h: 11.8 ± 1.36 %ID/g
[2]; [14]
  tissue uptake at 1 h: 0.56 ± 0.1 %ID/g
[2]; [15]
  tissue uptake at 1 h: 7.5 ± 0.13 %ID/g
